Values joined by “and” are separate entries in the source; they are usually repeats but may differ in a detail not shown here. Equal values may be shown once. Read-outs that look alike come from different tables or passages of the source.
Experiments:
HT1080 tumor cells = assay: In vivo efficacy against HT1080 tumors in BALB/c nude mice; details: biw dosing, BALB/c nude mice with HT1080 tumors
Protocol: HT1080 tumor cells were maintained in vitro as a monolayer culture in EMEM medium supplemented with 10% heat inactivated fetal bovine serum at 37 C in an atmosphere of 5% CO2 and air. The tumor cells were routinely subcultured twice weekly by trypsin-EDTA treatment. The cells growing in an exponential growth phase were harvested and counted for tumor inoculation.
BALB/c nude mice were inoculated subcutaneously at the right flank with HT1080 tumor cells […] in 0.2 ml of PBS for tumor development. 39 animals were randomized when the average tumor volume reached […].
The BDC compounds were formulated at 0.03 mg/ml in a vehicle buffer containing 25 mM histidine and 10% Sucrose. The formulations were administered twice weekly (biw) at 0.3, 1, 3 and 10 mg/kg. Tumor volume and body weight were measured up to 14 days from the first dosing.

MT1-MMP hemopexin domain = target: T1, MT1-MMP hemopexin domain (Homo sapiens, UniProt P50281); assay: Fluorescence polarisation competition binding assay; details: human MT1-MMP
T1 construct: residues Cys319-Gly511 from the human gene; His6 (N); made in house; host or cells: HEK293 cells (transient, pEXPR-IBA42 vector)
Source text: The MT1-MMP hemopexin-like repeats (also known as the MT1-MMP hemopexin domain), residues Cys319-Gly511 from the human gene, were transiently expressed in HEK293 cells as secreted N-terminally His6-tagged soluble protein, using the pEXPR-IBA42 (IBA) expression vector. Following expression, the protein was purified by Nickel-NTA affinity chromatography followed by gel filtration, and purity was checked by SDS-PAGE. Batch to batch variability was also monitored by fluorescence thermal shift experiments in the presence/absence of a hemopexin domain binding bicycle.
(§1) Binding affinity was measured using competition assays using Fluorescence Polarisation (anisotropy).
Fluoresceination may be performed on the N-terminal amino group of the peptide, which is separated from the bicycle core sequence by a sarcosine spacer (usually Sar5). This can be done during Fmoc solid phase synthesis or post-synthetically (after cyclisation with TBMB and purification) if the N-terminal amino group is unique to the peptide. Fluoresceination can also be performed on the C-terminus, usually on a Lysine introduced as the first C-terminal residue, which is then separated from the bicycle core sequence by a sarcosine spacer (usually Sar6). Thus, N-terminal tracers can have a molecular format described as Fluo-Gly-Sar5-A(BicycleCoreSequence), and (BicycleCoreSequence)-A-Sar6-K(Fluo) for a C-terminally fluoresceinated construct. Fluorescent tracers used in the Examples are A-(17-69)-A-Sar6-K(Fluo), A-(17-69-07)-A-Sar6-K(Fluo), and A-(17-69-12)-A-Sar6-K(Fluo).
(§2) Here, a pre-formed complex of PEX with the fluorescent PEX-binding tracer is titrated with free, non-fluoresceinated bicyclic peptide. Since all 17-69-based peptides are expected to bind at the same site, the titrant will displace the fluorescent tracer from PEX. Dissociation of the complex can be measured quantitatively, and the Kd of the competitor (titrant) to the target protein determined. The advantage of the competition method is that the affinities of non-fluoresceinated bicyclic peptides can be determined accurately and rapidly.
(§3) Subsequently, the non-fluorescent competitor bicyclic peptide (usually just the bicycle core sequence) is titrated, such that it displaces the fluorescent tracer from the target protein. The displacement of the tracer is measured and associated with a drop in fluorescence polarisation. The drop in fluorescence polarisation is proportional to the fraction of target protein bound with the non-fluorescent titrant, and thus is a measure of the affinity of titrant to target protein.
(§4) The raw data is fit to the analytical solution of the cubic equation that describes the equilibria between fluorescent tracer, titrant, and binding protein. The fit requires the value of the affinity of fluorescent tracer to the target protein, which can be determined separately by direct binding FP experiments (see previous section).

rat/mouse MT1-MMP = rat/mouse MT1-MMP (Mus musculus, UniProt P53690); assay: Binding affinity to rat/mouse MT1-MMP, measured as previously described; details: Binding Affinity (Ki in nM) rat/mouse ki, bicycle peptide-drug conjugates, two values given
Protocol: as §1, §2, §3
as §4, with “section). The curve fitting was performed using Sigmaplot 12.0 and used an adapted version of the equation described by Zhi-Xin Wang (FEBS Letters 360 (1995) 111-114).” for “section).”
The in vitro binding affinities of the bicycle peptide-drug conjugates prepared above were measured for MT1-MMP as previously described herein.

MT1-MMP = MT1-MMP (Homo sapiens, UniProt P50281); assay: SPR binding; details: read-out: Binding Affinity Kd (SPR)

Row | Compound | tolerated dose (HT1080 tumor cells) | Ki (MT1-MMP hemopexin domain; Binding Affinity (Ki in nM) Human ki, bicycle peptide-drug conjugates, two values given) | Ki (rat/mouse MT1-MMP) | Ki (MT1-MMP hemopexin domain; bicycle peptides, read-out: Binding Affinity Ki (h)) [nM] | Kd (MT1-MMP) [nM]
1 | CC[C@H](C)[C@@H]([C@@H](CC(=O)N1CCC[C@H]1[C@H](OC)[C@@H](C)C(=O)N[C@H](C)[C@@H](O)c1ccccc1)OC)N(C)C(=O)[C@@H](NC(=O)[C@H](C(C)C)N(C)C(=O)OCc1ccc(NC(=O)[C@H](CCCNC(N)=O)NC(=O)[C@@H](NC(=O)Cn2cc(CCC(=O)N[C@@H](C)C(=O)N[C@H]3CNCc4cc5cc(c4)CSC[C@H](NC(=O)[C@@H](C)NC(=O)[C@H](Cc4cccc6ccccc46)NC(=O)[C@H](CCC(=O)O)NC(=O)[C@H](CC(N)=O)NC(=O)[C@@H](C)NC3=O)C(=O)N[C@@H](CCC(=O)O)C(=O)N[C@@H](CC(=O)O)C(=O)N[C@@H](Cc3ccccc3)C(=O)N[C@@H](Cc3ccc(O)cc3)C(=O)N[C@@H](CC(=O)O)C(=O)N[C@@H](C(C)(C)C)C(=O)N[C@H](C(N)=O)CNC5)nn2)C(C)C)cc1)C(C)C [BT17BDC-59] | up to 3 mg/kg | 2.8 nM and 2.7 nM | 1.8 nM and 1.7 nM |  | 
2 | C#CCCC(=O)NCCC(=O)N(C)CC(=O)N(C)CC(=O)N(C)CC(=O)N(C)CC(=O)N(C)CC(=O)N(C)CC(=O)N(C)CC(=O)N(C)CC(=O)N(C)CC(=O)N(C)CC(=O)N[C@@H](C)C(=O)N[C@H]1CN(C)Cc2cc3cc(c2)CN(C)C[C@@H](C(N)=O)NC(=O)[C@H](C(C)(C)C)NC(=O)[C@H](CC(=O)O)NC(=O)[C@H](Cc2ccc(O)cc2)NC(=O)[C@H](Cc2ccccc2)NC(=O)[C@H](CC(=O)O)NC(=O)[C@H](CCC(=O)O)NC(=O)[C@H](CSC3)NC(=O)[C@@H](C)NC(=O)[C@H](Cc2cccc3ccccc23)NC(=O)[C@H](CCC(=O)O)NC(=O)[C@H](CC(N)=O)NC(=O)[C@@H](C)NC1=O [17-69-07-N450, (PYA)-(B-Ala)-Sar10-A(Dap(Me))(D-Ala)NE(1Nal)(D-Ala)CEDFYD(tBuGly)(Dap(Me))] |  |  |  | 3.7 | 1.91

Reference: US11730819B2, “Peptide derivatives having novel linkage structures” (priority 2016, dated 2023)
